Reference: patent publication US10336707B2, “Heterocyclic derivatives modulating activity of certain protein kinases” (EUDENDRON S.R.L., priority 2014, dated 2019)

Assays:
[1] = system: Karpas 299 lymphoma cell line positive for the oncogenic fusion protein NPM-ALK; assay: Tritiated thymidine uptake cell proliferation assay, Karpas 299; format: cell-based; settings: Homo sapiens, KARPAS-299; percentage of inhibition of cell proliferation at 200 nM; read-out: % Inhibition Karpas 299 cells
Protocol: (§1) Method: Tritiated Thymidine Uptake Cell Proliferation Assay
(§2) The following procedure was used with parent untransformed BaF3 cells, BaF3 cells transformed with the oncogenic fusion protein NPM/ALK, NPM/ALK positive SUDHL-1 cells, NPM/ALK positive SUPM2, ALK-negative HL60 cells, NPM/ALK positive KARPAS-299 cells. The parent untransformed BaF3 cells or Alk-negative HL60 cells are used as controls. Cells were seeded in U-bottomed 96-well plates at 10000 cells/well in a volume of 100 μl in supplemented medium. In the case of the parent untransformed BaF3 cells, the medium was supplemented with IL-3. Serial dilutions of inhibitors were added to the appropriate wells and volumes adjusted to 200 μl. Controls were treated with the equivalent volume of vehicle, DMSO, alone. Plates were incubated at 37° C. for 72 h. 3[H]-thymidine (1 μCi/well) was added for the last 16 h of incubation. Cells were harvested on to paper filters and 3[H]-thymidine incorporation was measured using a scintillation counter (1430 MicroBeta, Wallac, Turku, Finland). The 50% inhibitory concentration (IC50) was defined as the concentration of inhibitor, expressed in nanomolar units, that gave a 50% decrease in 3[H]-thymidine uptake compared with controls.
In Table 1 are listed results for selected examples of compounds of the invention, reported as percentage of inhibition of cell proliferation at 200 nM, obtained from cellular assays in Karpas 299 lymphoma cell line positive for the oncogenic fusion protein NPM-ALK.

[2] = biological target: T1, BaF3 cell line transfected with the oncogenic fusion protein NPM-ALK and expressing the mutation L1196M (Homo sapiens, UniProt Q9UM73, L1196M, cells depend on it); assay: Tritiated thymidine uptake cell proliferation assay, BaF3 NPM-ALK L1196M; format: cell-based, murine; settings: for GI50: averaged IC50 values of cell proliferation inhibition, class letters, read-out: IC50 BaF3 NPM-ALK L1196M cells; for % Inhibition BaF3 NPM-ALK L1196M cells: percentage of inhibition of cell proliferation at 200 nM
T1 construct: fused on or other part: P06748 (Nucleophosmin)
T1 sequence (Q9UM73 whole entry L1196M, the tested form may be a part): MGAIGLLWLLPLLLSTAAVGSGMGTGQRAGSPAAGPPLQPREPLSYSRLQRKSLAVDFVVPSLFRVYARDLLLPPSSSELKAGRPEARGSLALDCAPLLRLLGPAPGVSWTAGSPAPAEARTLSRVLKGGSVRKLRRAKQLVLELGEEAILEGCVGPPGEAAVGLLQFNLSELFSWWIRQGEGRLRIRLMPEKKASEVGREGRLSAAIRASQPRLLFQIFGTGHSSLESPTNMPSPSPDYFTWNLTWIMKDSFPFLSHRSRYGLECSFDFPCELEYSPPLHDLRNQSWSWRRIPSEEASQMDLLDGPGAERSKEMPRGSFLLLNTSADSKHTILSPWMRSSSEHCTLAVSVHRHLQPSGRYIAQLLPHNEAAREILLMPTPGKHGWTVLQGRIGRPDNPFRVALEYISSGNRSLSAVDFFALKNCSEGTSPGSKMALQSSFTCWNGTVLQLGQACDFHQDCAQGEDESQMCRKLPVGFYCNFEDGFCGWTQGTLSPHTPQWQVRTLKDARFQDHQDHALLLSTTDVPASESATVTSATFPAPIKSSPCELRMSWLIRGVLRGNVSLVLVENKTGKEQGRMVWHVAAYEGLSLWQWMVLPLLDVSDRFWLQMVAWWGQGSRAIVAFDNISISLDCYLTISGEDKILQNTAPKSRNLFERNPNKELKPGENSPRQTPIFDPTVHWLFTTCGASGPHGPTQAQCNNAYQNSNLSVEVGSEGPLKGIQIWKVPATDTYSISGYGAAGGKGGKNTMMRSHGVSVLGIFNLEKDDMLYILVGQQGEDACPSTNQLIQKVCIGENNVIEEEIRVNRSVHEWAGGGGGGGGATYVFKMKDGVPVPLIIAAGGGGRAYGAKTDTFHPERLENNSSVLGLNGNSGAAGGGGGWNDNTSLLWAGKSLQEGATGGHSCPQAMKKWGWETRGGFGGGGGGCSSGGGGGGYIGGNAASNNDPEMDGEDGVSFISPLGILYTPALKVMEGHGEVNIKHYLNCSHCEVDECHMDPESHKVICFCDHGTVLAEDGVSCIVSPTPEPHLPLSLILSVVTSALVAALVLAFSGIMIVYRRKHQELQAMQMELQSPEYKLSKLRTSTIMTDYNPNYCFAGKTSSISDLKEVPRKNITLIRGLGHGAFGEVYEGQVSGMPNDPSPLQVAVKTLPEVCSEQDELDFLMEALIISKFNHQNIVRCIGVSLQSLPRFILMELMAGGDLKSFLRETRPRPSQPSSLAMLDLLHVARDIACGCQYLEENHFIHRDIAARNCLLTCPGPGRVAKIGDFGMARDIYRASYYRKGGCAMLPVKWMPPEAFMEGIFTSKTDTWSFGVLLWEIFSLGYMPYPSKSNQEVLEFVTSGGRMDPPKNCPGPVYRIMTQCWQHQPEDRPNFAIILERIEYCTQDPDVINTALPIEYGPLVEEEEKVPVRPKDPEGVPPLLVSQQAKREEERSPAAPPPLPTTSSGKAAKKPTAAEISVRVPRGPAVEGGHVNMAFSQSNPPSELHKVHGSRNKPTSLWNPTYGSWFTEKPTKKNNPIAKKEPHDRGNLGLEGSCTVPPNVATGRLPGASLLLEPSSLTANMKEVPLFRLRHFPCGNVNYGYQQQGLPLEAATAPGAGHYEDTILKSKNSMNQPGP
Protocol: as §1, §2
In Table 2 are listed results for selected examples of compounds of the invention, reported as percentage of inhibition of cell proliferation at 200 nM, obtained from cellular assays in BaF3 cell line transfected with the oncogenic fusion protein NPM-ALK and expressing the mutation L1196M.
In Table 3 are listed averaged IC50 values of cell proliferation inhibition for selected examples of compounds of the present invention, obtained from cellular assays in BaF3 cell line transfected with the oncogenic fusion protein NPM-ALK and expressing the mutation L1196M. The letter “A” designates an IC50 value between 1 nM and 50 nM, the letter “B” designates an IC50 value between 50 nM and 100 nM, the letter “C” designates an IC50 value between 100 and 500 nM.

Compound	GI50 [2] [nM]	% Inhibition BaF3 NPM-ALK L1196M cells [2] [%]	inhibition at 0.2 µM [1] [%]
CN1CCN(c2ccc(C(=O)Nc3n[nH]c4cc(-c5cnc(N)nc5)c(Cc5cc(F)cc(F)c5)cc34)c(NC3CCOCC3)c2)CC1 [Example 10, N-[6-(2-aminopyrimidin-5-yl)-5-[(3,5-difluorophenyl)methyl]-1H-indazol-3-yl]-4-(4-methylpiperazin-1-yl)-2-(tetrahydropyran-4-ylamino)benzamide]		61	93
CN1CCN(c2ccc(C(=O)Nc3n[nH]c4cc(-c5cccc(CO)c5)c(Cc5cc(F)cc(F)c5)cc34)c(NC3CCOCC3)c2)CC1 [Example 13, N-[5-[(3,5-difluorophenyl)methyl]-6-[3-(hydroxymethyl)phenyl]-1H-indazol-3-yl]-4-(4-methylpiperazin-1-yl)-2-(tetrahydropyran-4-ylamino)benzamide]	100 to 500	97	
Cc1cc(N)ncc1-c1cc2[nH]nc(NC(=O)c3ccc(N4CCN(C)CC4)cc3NC3CCOCC3)c2cc1Cc1cc(F)cc(F)c1 [Example 14, N-[6-(6-amino-4-methyl-3-pyridyl)-5-[(3,5-difluorophenyl)methyl]-1H-indazol-3-yl]-4-(4-methylpiperazin-1-yl)-2-(tetrahydropyran-4-ylamino)benzamide]		66	62
CN1CCN(c2ccc(C(=O)Nc3n[nH]c4cc(-c5cc[nH]c(=O)c5)c(Cc5cc(F)cc(F)c5)cc34)c(NC3CCOCC3)c2)CC1 [Example 16, N-[5-[(3,5-difluorophenyl)methyl]-6-(2-oxo-1H-pyridin-4-yl)-1H-indazol-3-yl]-4-(4-methylpiperazin-1-yl)-2-(tetrahydropyran-4-ylamino)benzamide]			88
CN1CCN(c2ccc(C(=O)Nc3n[nH]c4cc(-c5cn[nH]c5)c(Cc5cc(F)cc(F)c5)cc34)c(NC3CCOCC3)c2)CC1 [Example 18, N-[5-[(3,5-difluorophenyl)methyl]-6-(1H-pyrazol-4-yl)-1H-indazol-3-yl]-4-(4-methylpiperazin-1-yl)-2-(tetrahydropyran-4-ylamino)benzamide]	100 to 500	97	100
CNC(=O)c1ccc(-c2cc3[nH]nc(NC(=O)c4ccc(N5CCN(C)CC5)cc4NC4CCOCC4)c3cc2Cc2cc(F)cc(F)c2)cc1 [Example 20, N-[5-[(3,5-difluorophenyl)methyl]-6-[4-(methylcarbamoyl)phenyl]-1H-indazol-3-yl]-4-(4-methylpiperazin-1-yl)-2-(tetrahydropyran-4-ylamino)benzamide]		57	
COc1cccc(-c2cc3[nH]nc(NC(=O)c4ccc(N5CCN(C)CC5)cc4NC4CCOCC4)c3cc2Cc2cc(F)cc(F)c2)c1 [Example 24, N-[5-[(3,5-difluorophenyl)methyl]-6-(3-methoxyphenyl)-1H-indazol-3-yl]-4-(4-methylpiperazin-1-yl)-2-(tetrahydropyran-4-ylamino)benzamide]		52	

The next lines start with results.

GI50 [2] [nM]	% Inhibition BaF3 NPM-ALK L1196M cells [2] [%]	Compound	inhibition at 0.2 µM [1] [%]
1 to 50	99	CN1CCN(c2ccc(C(=O)Nc3n[nH]c4cc(-c5cccc(O)c5)c(Cc5cc(F)cc(F)c5)cc34)c(NC3CCOCC3)c2)CC1 [Example 4, N-[5-[(3,5-difluorophenyl)methyl]-6-(3-hydroxyphenyl)-1H-indazol-3-yl]-4-(4-methylpiperazin-1-yl)-2-(tetrahydropyran-4-ylamino)benzamide]	99
1 to 50	100	Cc1cc(O)ccc1-c1cc2[nH]nc(NC(=O)c3ccc(N4CCN(C)CC4)cc3NC3CCOCC3)c2cc1Cc1cc(F)cc(F)c1 [Example 5, N-[5-[(3,5-difluorophenyl)methyl]-6-(4-hydroxy-2-methyl-phenyl)-1H-indazol-3-yl]-4-(4-methylpiperazin-1-yl)-2-(tetrahydropyran-4-ylamino)benzamide]	100
1 to 50	100	CN1CCN(c2ccc(C(=O)Nc3n[nH]c4cc(-c5ccc(O)cc5F)c(Cc5cc(F)cc(F)c5)cc34)c(NC3CCOCC3)c2)CC1 [Example 6, N-[5-[(3,5-difluorophenyl)methyl]-6-(2-fluoro-4-hydroxy-phenyl)-1H-indazol-3-yl]-4-(4-methylpiperazin-1-yl)-2-(tetrahydropyran-4-ylamino)benzamide]	100
1 to 50	100	Cc1ccc(O)cc1-c1cc2[nH]nc(NC(=O)c3ccc(N4CCN(C)CC4)cc3NC3CCOCC3)c2cc1Cc1cc(F)cc(F)c1 [Example 7, N-[5-[(3,5-difluorophenyl)methyl]-6-(5-hydroxy-2-methyl-phenyl)-1H-indazol-3-yl]-4-(4-methylpiperazin-1-yl)-2-(tetrahydropyran-4-ylamino)benzamide]	93
1 to 50	99	CN1CCN(c2ccc(C(=O)Nc3n[nH]c4cc(-c5cc(O)ccc5F)c(Cc5cc(F)cc(F)c5)cc34)c(NC3CCOCC3)c2)CC1 [Example 8, N-[5-[(3,5-difluorophenyl)methyl]-6-(2-fluoro-5-hydroxy-phenyl)-1H-indazol-3-yl]-4-(4-methylpiperazin-1-yl)-2-(tetrahydropyran-4-ylamino)benzamide]	99
1 to 50	99	CN1CCN(c2ccc(C(=O)Nc3n[nH]c4cc(-c5ccc(O)cc5C(F)(F)F)c(Cc5cc(F)cc(F)c5)cc34)c(NC3CCOCC3)c2)CC1 [Example 9, N-[5-[(3,5-difluorophenyl)methyl]-6-[4-hydroxy-2-(trifluoromethyl)phenyl]-1H-indazol-3-yl]-4-(4-methylpiperazin-1-yl)-2-(tetrahydropyran-4-ylamino)benzamide]	100
50 to 100	88	CN1CCN(c2ccc(C(=O)Nc3n[nH]c4cc(-c5ccc(N)nc5)c(Cc5cc(F)cc(F)c5)cc34)c(NC3CCOCC3)c2)CC1 [Example 11, N-[6-(6-amino-3-pyridyl)-5-[(3,5-difluorophenyl)methyl]-1H-indazol-3-yl]-4-(4-methylpiperazin-1-yl)-2-(tetrahydropyran-4-ylamino)benzamide]	95
50 to 100	99	CN1CCN(c2ccc(C(=O)Nc3n[nH]c4cc(-c5cncc(N)c5)c(Cc5cc(F)cc(F)c5)cc34)c(NC3CCOCC3)c2)CC1 [Example 12, N-[6-(5-amino-3-pyridyl)-5-[(3,5-difluorophenyl)methyl]-1H-indazol-3-yl]-4-(4-methylpiperazin-1-yl)-2-(tetrahydropyran-4-ylamino)benzamide]	100
50 to 100	100	CN1CCN(c2ccc(C(=O)Nc3n[nH]c4cc(-c5cnn(C(C)(C)CO)c5)c(Cc5cc(F)cc(F)c5)cc34)c(NC3CCOCC3)c2)CC1 [Example 15, N-[5-[(3,5-difluorophenyl)methyl]-6-[1-(2-hydroxy-1,1-dimethyl-ethyl)pyrazol-4-yl]-1H-indazol-3-yl]-4-(4-methylpiperazin-1-yl)-2-(tetrahydropyran-4-ylamino)benzamide]	100
50 to 100	100	CN1CCN(c2ccc(C(=O)Nc3n[nH]c4cc(-c5cc(O)cc(F)c5)c(Cc5cc(F)cc(F)c5)cc34)c(NC3CCOCC3)c2)CC1 [Example 19, N-[5-[(3,5-difluorophenyl)methyl]-6-(3-fluoro-5-hydroxy-phenyl)-1H-indazol-3-yl]-4-(4-methylpiperazin-1-yl)-2-(tetrahydropyran-4-ylamino)benzamide]	99
1 to 50	99	Cc1cc(-c2cc3[nH]nc(NC(=O)c4ccc(N5CCN(C)CC5)cc4NC4CCOCC4)c3cc2Cc2cc(F)cc(F)c2)ccc1O [Example 21, N-[5-[(3,5-difluorophenyl)methyl]-6-(4-hydroxy-3-methyl-phenyl)-1H-indazol-3-yl]-4-(4-methylpiperazin-1-yl)-2-(tetrahydropyran-4-ylamino)benzamide]	100
